Values after ≈ are worked out from the molar mass of the structure shown.
Tests used:
male C57BL/6J mice = assay: Mouse oral glucose tolerance test; type: in vivo; conditions: for Glucose Lowering: at the minimally efficacious dose, plasma glucose AUC in oGTT; for Minimally efficacious Dose: oGTT in C57BL/6J mice
Method: Mouse Oral Glucose Tolerance Test
Twenty four (24) male C57BL/6J mice (8-10 weeks old, average weight 28 g) were randomized into 4 groups (1 mouse/cage) of 6 mice per group based on fed plasma glucose and body weight. Prior to initiating the study, mice were fasted overnight and the next morning they were weighed and placed in the experimental lab. After 30 min in the environment, the mice were bled via tail tip at −60 min and immediately given their first oral administration of vehicle (40% PEG400, 10% Cremophor EL, 50% water) or compound solutions (5 ml/kg). At time 0 the mice were bled and given 50% glucose (2 g/kg) to initiate the oral glucose tolerance test (oGTT). The mice were bled 30, 60 and 120 min after the glucose load. Blood samples were drawn into potassium EDTA, placed on ice during the study and subsequently centrifuged for 10 min at 3000 rpm at 4° C. Plasma samples were diluted 11-fold for glucose analysis in the COBAS MIRA® System (Roche Diagnostics). Area under the curve was calculated from the plasma glucose time course data using the trapezoid rule with fasting plasma glucose as the baseline (GraphPad Prism Software). The statistical significance of the changes in the glucose AUCs resulting from the different treatments was determined by one-way ANOVA followed by Dunnett's test using the vehicle group as the control (JMP software, release 5.1.2).
Find below in Table 7 data for compared compounds (See WO 2009/012275 A1).

in vitro = conditions: human, microsomes, pH 7.4
Method: (§1) Metabolic Stability in Liver Microsomes Test
(§2) The test compound was received as a 3.5 mM stock solution in 100 percent dimethyl sulfoxide (“DMSO”, Sigma Aldritch). The compound solution was diluted to create a 50 μM acetonitrile (“ACN”, Sigma Aldritch) solution containing 1.4% DMSO, which is then used as a 100-fold stock for incubation with microsomes. The test compound, β-nicotinamide adenine dinucleotide phosphate (“NADPH”, AppliChem Inc.) and liver microsome solutions are combined for incubation in three steps:
(§3) 1) 450 μl of liver microsome suspension, protein concentration of 1.1 mg/ml in 100 mM sodium (+)/phosphate (“NaPi”, pH 7.4, Sigma Aldritch) buffer, 5 mM magnesium chloride (“MgCl2, Sigma Aldritch) buffer, is pre-warmed at 37° C.;
(§4) 2) 5 μl of 50 μM test compound (98.6% ACN, 1.4% DMSO) is added to the same tube and pre-incubated at 37° C. for 5 minutes; and
(§5) 3) The reaction is initiated by the addition of 50 μl of pre-warmed 10 mM NADPH solution in 100 mM NaPi, pH 7.4.
(§6) Reaction components are mixed well and then 65 μl are immediately transferred into 130 μl quench/stop solution (zero-time point, T0). The reactions are incubated at 37° C. for 5, 10, 15, 30 and 45 minutes and at each time-point a 65 μl aliquot is transferred into 130 μl of quench solution. ACN containing Internal Standard (100 ng/ml), is used as the quench solution to terminate metabolic reactions. The quenched mixtures are centrifuged at 1500 rpm (˜500×g) in an Allegra X-12 centrifuge, SX4750 rotor (Beckman Coulter Inc., Fullerton, Calif.) for fifteen minutes to pellet denatured microsomes. A volume of 90 μl of supernatant extract, containing the mixture of parent compound and its metabolites, is then transferred to a separate 96-well plate for LC/MS-MS analysis to determine the percent of parent compound that is remaining in the mixture. Peak integration is performed on all samples using the Hepatic Clearance Calculator of QuickCalc by Gubbs, Inc. The percent remaining calculation is performed by comparing the LC-MS/MS peak areas from the samples at each time point to those from the T0 samples for each compound. T1/2 values are calculated from linear regression of the LN (% Remaining) over time, and the slope of that regression (Kel) is used to calculate T1/2, using the following equation: T1/2=−0.693/Kel.

Aqueous solubility assay = type: physicochemical; conditions: aqueous buffer, thermodynamic from solid; pH 6.5 phosphate buffer, room temperature, 18-24 h
Method: Approximately 0.75 mg of accurately weighed test compound was added to 1 mL of a pH 6.5 phosphate buffer (50 mM Potassium Phosphate Buffer) to make solutions with a nominal targeted concentration of 1 mM. The vial was then rotated on an orbital shaker at room temperature for 18-24 h. After equilibration time had been met, the test solution was centrifuge filtered through a 0.45 um membrane (Millipore Ultrafree Centrifugal Filters, Durapore PVDF 0.45 um). The filtrate was then analyzed by an Agilent HP1100 HPLC/UV at multiple wavelengths using diode array detection (e.g. 210, 230, 254 and 280 nm) against a previously generated calibration curve to determine compound concentration.
Find below in Table 9 data for compared compounds (See WO 2011/127106 A1).

[1] = Metabolic stability in liver microsomes test; conditions: human, pH 7.4
Method: as §1, §2, §3, §4, §5, §6

**Q.** For `Cc1nc(-n2cc(Cl)c(OC3CCN(c4ncc(Cl)cn4)CC3)cc2=O)ccc1N1CCC(O)C1=O` (centres unmarked) [Example 1, 5-chloro-4-((1-(5-chloropyrimidin-2-yl)piperidin-4-yl)oxy)-5′-(3-hydroxy-2-oxopyrrolidin-1-yl)-6′-methyl-2H-[1,2′-bipyridin]-2-one], which “Glucose Lowering” value (male C57BL/6J mice) is on record?
**A.** −36%

**Q.** And the “Minimally efficacious Dose” value (male C57BL/6J mice)?
**A.** 0.03 mg/kg

**Q.** What about the half-life at 0.5 µM (in vitro) of the same compound?
**A.** 1.57 h

**Q.** What about the solubility (Aqueous solubility assay) of the same compound?
**A.** 4 µg/mL (≈ 7.53 µM)

**Q.** For `CCCc1cnc(N2CCC(Oc3cc(=O)n(-c4ccc(N5CCC(O)C5=O)c(C)n4)cc3Cl)CC2)nc1` (centres unmarked) [Example 2, 5-chloro-5′-(3-hydroxy-2-oxopyrrolidin-1-yl)-6′-methyl-4-((1-(5-propylpyrimidin-2-yl)piperidin-4-yl)oxy)-2H-[1,2′-bipyridin]-2-one], which “Glucose Lowering” value (male C57BL/6J mice) is on record?
**A.** −19%

**Q.** And the “Minimally efficacious Dose” value (male C57BL/6J mice)?
**A.** 0.03 mg/kg

**Q.** And the half-life at 0.5 µM [1]?
**A.** 2 h

**Q.** What about the solubility (Aqueous solubility assay) of the same compound?
**A.** 1 µg/mL (≈ 1.86 µM)

**Q.** Which “Glucose Lowering” value (male C57BL/6J mice) does the source give for `CCCc1cnc(N2CCC(Oc3ccn(-c4ccc(N5CCC(O)C5=O)c(C)n4)c(=O)c3)CC2)nc1` (centres unmarked) [Example 5, 5′-(3-hydroxy-2-oxopyrrolidin-1-yl)-6′-methyl-4-((1-(5-propylpyrimidin-2-yl)piperidin-4-yl)oxy)-2H-[1,2′-bipyridin]-2-one] here?
**A.** −21%

**Q.** And the “Minimally efficacious Dose” value (male C57BL/6J mice)?
**A.** 0.1 mg/kg

**Q.** And the half-life at 0.5 µM (in vitro)?
**A.** 1.27 h

**Q.** And the solubility (Aqueous solubility assay)?
**A.** 3 µg/mL (≈ 5.95 µM)

**Q.** Which half-life at 0.5 µM (in vitro) does the source give for `Cc1nc(-n2ccc(OC3CCN(c4ncc(Cl)cn4)CC3)cc2=O)ccc1N1CCC(O)C1=O` (centres unmarked) [Example 6, 4-((1-(5-chloropyrimidin-2-yl)piperidin-4-yl)oxy)-5′-(3-hydroxy-2-oxopyrrolidin-1-yl)-6′-methyl-2H-[1,2′-bipyridin]-2-one] here?
**A.** 1.68 h

**Q.** And the solubility (Aqueous solubility assay)?
**A.** 7 µg/mL (≈ 14.1 µM)
